Assay results taken from patent US10131639B2, “Formulations of 2-(tert-butylamino)-4-((1R,3R,4R)-3-hydroxy-4methylcyclohexylamino)-pyrimidine-5-carboxamide” (Signal Pharmaceuticals, LLC, priority 2014, dated 2018).
Where two headings read alike, the source gives them in different places.

Tests used:
[1] = Phase 1 study: safety and tolerability in healthy subjects; type: in vivo, human
From the text: Safety will be monitored throughout the study. Safety evaluations will include adverse event (AE) reporting, PEs, vital signs, 12-lead ECGs, clinical laboratory safety tests (including liver function tests (LFTs), total cholesterol, triglycerides, high-density lipoprotein (HDL), and low-density lipoprotein (LDL)) in addition to standard clinical chemistry, hematology, and urinalysis tests), review of concomitant medications/procedures, evaluation of wound healing, and pregnancy tests for female subjects.
All AEs will be monitored and recorded throughout the study from the time the informed consent form (ICF) is signed until study completion, and when made known to the Investigator within 28 days after the last dose of Compound 1 (and those serious adverse events (SAEs) made known to the Investigator at any time thereafter that are suspected of being related to IP). All concomitant medications and procedures will be reviewed and recorded from the time the subject signs the ICF until study completion. A follow-up visit (Part 1) or a follow-up phone call (Part 2) will be scheduled for all subjects. If a subject is discontinued from the study for any reason, an ET visit will be performed.
Part 1: To evaluate the safety of single and multiple oral doses of Compound 1; and Part 2: To evaluate the safety and tolerability of the formulated Compound 1 tablets when administered with food.

[2] = Solid state chemical stability under stress conditions (HPLC with UV detection); conditions: for Chemical stability (open vial, 2 weeks): HPLC/UV
Method: Six vials were prepared for each salt. Two samples were stored in the refrigerator. The other four samples in open vials were stored under 4 stress conditions, respectively. […] One set of samples stored in the refrigerator were used to prepare the stock and standard solutions.

in vivo [3] = conditions: dog
[4] = Phase 1 study Part 1: plasma pharmacokinetics after multiple oral doses of Compound 1 as AIC (QD×6 days) in healthy subjects; type: in vivo, human; conditions: for AUC / concentration at 24 h / Cmax: geometric mean (geometric CV%); for AUC: read-out: AUC0-τ (τ = 24 hours); for concentration at 24 h: read-out: Cmin (plasma concentration at 24 hours postdose); for Cmax: healthy subjects
Method: Part 1 was an open label, multiple dose, three period, fixed sequence study to evaluate the effect of Compound 1 on JNK activity following UV irradiation.
On Day 1, after a minimum of an 8-hour fast, subjects received the first dose of Compound 1. All subjects received the following oral doses of Compound 1 in the fixed sequence below: • Treatment A: 60 mg Compound 1 as AIC, QD×6 days; • Treatment B: 160 mg Compound 1 as AIC, QD×6 days; and • Treatment C: 400 mg Compound 1 as AIC, QD×6 days.
All subjects received the following oral doses of Compound 1 as AIC: • Days 1 through 6: Treatment A: 60 mg Compound 1 AIC, QD×6 days; • Days 7 through 12: Treatment B: 160 mg Compound 1 AIC, QD×6 days; and • Days 13 through 18: Treatment C: 400 mg Compound 1 AIC, QD×6 days.
The treatments were administered in the morning following an overnight fast of at least 8 hours. All doses were administered with 240 mL of noncarbonated, room temperature water. Water was allowed as desired except for 1 hour before and 1 hour after drug administration. The first meal following the morning dose on the sixth day of each dosing period was 4 hours postdose. On all other dosing days, the next meal/snack was served after a minimum 2 hours after dosing.
Blood samples for Compound 1 plasma PK analysis were collected at the following time points on Days 6, 12, and 18: predose and 0.5, 2, 4, 6, 10, 12, and 24 hours postdose.
Concentrations of Compound 1 in plasma were measured using a validated liquid chromatography tandem mass spectrometry (LC-MS/MS) assay. In Part 2, concentrations of Compound 1 in whole blood were measured using a validated LC-MS/MS method.
Plasma and whole blood PK parameters were derived for Compound 1 by noncompartmental analysis. Actual sampling times were used in the calculation of PK parameters.
AUCτ: AUC from time zero to tau, where tau is the dosing interval.
Cmax: Maximum observed plasma concentration.
Cmin: Minimum observed plasma concentration.

[5] = Earlier human experience with Compound 1 (doses up to 480 mg QD×14 days); type: in vivo; conditions: healthy subjects
[6] = Solid state physical stability under stress conditions (XRPD); type: physicochemical; conditions: XRPD vs initial material
Method: A portion of the sample was loaded to a 4 mL clear glass vial. Four samples were prepared for each salt. The vials (open) were stored under 4 different stress conditions, respectively.

in vivo [7] = conditions: rat
From the text: Based upon available human PK and preclinical pharmacology data, the doses were anticipated to provide a range of PD effects including both minimum and maximum JNK inhibition.

[8] = human, plasma, Treatment A: 60 mg as AIC, oral QD×6 days, N=15
[9] = human, plasma, Treatment B: 160 mg as AIC, oral QD×6 days, N=15
[10] = human, plasma, Treatment C: 400 mg as AIC, oral QD×6 days, N=15

Chemical stability (open vial, 2 weeks) ([2]; 80° C./75% RH): no change
Chemical stability (open vial, 2 weeks) ([2]; 80° C.): no change
% Remaining at 80° C. ([2]; solid state, open vial, 80° C., 2 weeks, HPLC with UV detection): 101.8%
% Remaining at 80° C./75% RH ([2]; solid state, open vial, 80° C./75% RH, 2 weeks, HPLC with UV detection): 100.8%
AUC at 28 days (in vivo [3]): 81200 ng·h/mL
increase of systemic exposure (AUC and Cmax) with dose ([4]; dose increased from 60 mg to 400 mg, multiple oral doses): more than dose-proportional
half-life ([4]; human, plasma, oral, following multiple doses (60-400 mg QD), read-out: mean terminal half life): 14 to 21 h
AUC [4, 8]: 2290 ng·h/mL
concentration at 24 h [4, 8]: 22 ng/mL
Tmax ([4]; human, plasma, Treatment A: 60 mg as AIC, oral QD×6 days, median (minimum, maximum), N=15, read-out: Tmax): 1.95 h
AUC [4, 9]: 8560 ng·h/mL
concentration at 24 h [4, 9]: 65 ng/mL
Tmax ([4]; human, plasma, Treatment B: 160 mg as AIC, oral QD×6 days, median (minimum, maximum), N=15, read-out: Tmax): 1.95 h
AUC [4, 10]: 31300 ng·h/mL
concentration at 24 h [4, 10]: 212 ng/mL
Tmax ([4]; human, plasma, Treatment C: 400 mg as AIC, oral QD×6 days, median (minimum, maximum), N=15, read-out: Tmax): 1.97 h
Tmax ([4]; human, plasma, following single or multiple oral doses at the dose levels evaluated, postdose, read-out: median Tmax): 1 to 4 h
Cmax ([4]; human, Treatment A: 60 mg as AIC, oral QD×6 days, plasma, N=15): 419 ng/mL
Cmax ([4]; human, Treatment B: 160 mg as AIC, oral QD×6 days, plasma, N=15): 1460 ng/mL
Cmax ([4]; human, Treatment C: 400 mg as AIC, oral QD×6 days, plasma, N=15): 4460 ng/mL
Physical stability (open vial, 2 weeks) ([6]; 80° C./75% RH, listed as Compound 1 (free base)): physically stable
Physical stability (open vial, 2 weeks) ([6]; 80° C./75% RH, listed as Free base): no change
Physical stability (open vial, 2 weeks) ([6]; 80° C., listed as Compound 1 (free base)): physically stable
Physical stability (open vial, 2 weeks) ([6]; 80° C., listed as Free base): no change
AUC (in vivo [7]): 23400 ng·h/mL
SMILES: C[C@@H]1CC[C@@H](Nc2nc(NC(C)(C)C)ncc2C(N)=O)C[C@H]1O [Compound 1, 2-(tert-butylamino)-4-((1R,3R,4R)-3-hydroxy-4-methylcyclohexylamino)-pyrimidine-5-carboxamide]
subjects reporting TEAEs ([1]; 11 of 28 subjects, 17 TEAEs, Parts 1 and 2 overall): 39.3%
clinical laboratory evaluations, vital sign measurements, ECGs ([1]; Parts 1 and 2): No clinically significant changes or findings
subjects with an SAE or severe TEAE ([1]; Parts 1 and 2 overall, 28 subjects): No subjects
safety and tolerability ([1]; multiple doses 60, 160 and 400 mg AIC QD for 6 days): safe and well tolerated
diarrhea suspected of being related to Compound 1 ([1]; of 28 subjects): 2 subjects
nausea suspected of being related to Compound 1 ([1]; of 28 subjects): 4 subjects
safety and tolerability ([1]; single doses of 200 mg as formulated tablets (fed and fasted) and AIC (fasted)): safe and well tolerated
tolerability [5]: well tolerated
